Results: patent US20240390490A1, “PHARMACEUTICAL COMPOSITIONS FOR THE TREATMENT OF CANCERS” (Rutgers, The State University of New Jersey, priority 2021, published 2024)

Tests used:
[1] = test system: NK cells and macrophages in tumor tissues; assay: Immunocytochemistry and flow cytometry of tumor-infiltrating immune cells; assay type: in vivo, rat
Protocol: Thin paraffin sections (5 μm) of tumors were stained using the ABC Elite Vectastain Kit (Vector Labs) according to the manufacturer's instructions using various primary antibodies. Details of all primary antibodies used are described above. In addition, cell proliferation-associated antigen (Ki-67; 1:200) were purchased from Abcam. After the primary antibody incubation and PBS wash, sections were incubated with peroxidase-coupled anti-rabbit Ig ImmPRESS reagent (Vector Laboratories, Inc.). Antigen localization was achieved by using the 3,3′-diaminobenzidine-peroxidase reaction, and sections were dehydrated, and cover slipped. To evaluate the immunohistochemical staining, sections were photographed using a Nikon-TE 2000 inverted microscope. Intensity of staining was categorized as negative and strongly positive (27). Brown-stained spots are immuno positive cells. Data are means±SEM obtained from 3 serial sections of 5 to 6 animals in each group.
Tumor-infiltrating immune cells were collected from MDA-MB-231 cell xenograft tumors to examine and compare the immune cell population among control and drug-treated animals. Briefly, single-cell suspensions of tumor tissue were achieved by mincing the tissue with a scalpel blade using a crisscross method, ground with 1-ml of ACK lysing buffer to remove red blood cells. The cell suspensions were filtered through a 70-micron sieve and then washed with PBS. Cells from the tumor were collected and dispersed with 100 μl of PBS and stained by the addition of fluorescence-conjugated antibodies. For flow cytometry experiments, single-cell suspension derived from tumors, PBMC, and splenocytes were used to characterize the immune cell population. Fluorophore-conjugated antibodies were used to detect surface markers of specific cell types and markers are as follows: for NK cells (CD161a (10/78)), tissue macrophage (RT1B (OX-6)), dendritic cells (CD103 (OX-62)), peripheral monocytes (CD11b (ED8)), B cells (CD45RA (OX-33)), and DAPI (Sigma) was used to exclude dead cells.
Immune cells from the tumor, PBMC, and splenocyte samples were examined by following the gating strategy as described below. First, side scatter area (SSC-A) versus forward scatter area (FSC-A) were used to exclude cellular debris, then forward scatter height (FSC-H) versus FSC-A were used to select single cells. Single cells were sub-gated using DAPI viability dye and a further live cell population was used to select markers. Expression of a particular cell surface marker in a specific population of cells was identified and represented as single parameter histograms. Unstained cells and compensation beads (BD Biosciences, CA) were used to set voltages and create single stain negative and positive controls. Additional negative controls (isotype control and fluorescence minus one (FMO)) were also used to determine any non-specific binding in the present study. The data collected from each sample were exported and analyzed using FlowJo™ version 10.7.

[2] = test system: MDA-MB-231, MDA-MB-468, and T47D cells; assay: Matrigel cell invasion assay; assay type: cell-based, human; conditions: 100 μM, 48 hours, Matrigel coated membrane
Protocol: The invasive and metastatic potential of cell lines was tested by transmigration through an extracellular matrix (ECM) by a previously described method (26). In brief, the upper chamber of the matrix in 24-well Matrigel invasion chamber plates (BD BioCoat™ Matrigel™ Chamber, BD Biosciences, San Jose, CA) was loaded with 5×10^4 cells in 500 μl of the appropriate medium (cell numbers established by preliminary experiments). After 24 hours, medium containing 1% FBS was used on both the lower and upper surfaces. One day later, the medium of the upper chamber was replaced with 500 μl medium containing 1% FBS without any drug treatment. The medium was replaced with medium containing 10% FBS and 25 ng/ml EGF in the lower chamber. The effect of beta-adrenergic and opioidergic drugs was tested by adding a 100 μM concentration of these drugs alone or in combination or vehicle alone in both lower and upper chambers. After 48 hours of incubation, the noninvasive cells that remained within the inserts were removed with a cotton swab. Cells that traversed through the Matrigel and the polycarbonate filter (8-μm pore size) attached to the lower surface were stained with 0.5% crystal violet for calculating the invasion index. Cells were visualized and photographed as described in the migration assay. The photographs were used to count invasive cells in Adobe Photoshop.

MDA-MB-231 cells [3] = assay: Cell cycle analysis (PI staining); assay type: cell-based, human; conditions: 100 μM
Protocol: Cell cycle analysis of breast cancer cells was carried out using propidium iodide (PI) staining protocol according to the manufacturer's instructions (Nexcelom Bioscience LLC, Lawrence, MA). […] Then, cells were harvested by trypsinization, centrifuged at 2000 rpm for 5 minutes, washed with PBS (pH 7.4), and fixed in ice cold 100% ethanol for 15 minutes. The cells were spun down and resuspended in 150 μl of PI-staining solution provided with the Cellometer PI Cell Cycle Kit. The PI-stained cells were then subjected to analysis in the Cellometer Vision instrument (Nexcelom Bioscience LLC) and the data was captured on Cellometer Vision CBA software (Nexcelom Bioscience LLC) and analyzed by FCS Express 4 software (Molecule Devices, Corp., Sunnyvale, CA). Differences in fluorescence intensity were used to determine the percentage of cells in each phase of the cell cycle and represented as histograms for control and drug-treated samples.

MDA-MB-231 cells [4] = assay: Clonogenic (colony formation) assay; assay type: cell-based, human; conditions: 100 μM, 14 days
Protocol: The clonogenic assay was performed as previously described (25). Briefly, cells were suspended in culture media and were seeded into 6-well tissue culture plates at a density of 1,000 cells/well, allowed to adhere overnight, and treated with vehicle alone or a 100 μM concentration of beta-adrenergic and opioidergic drugs alone or in combination. Fresh medium and drugs were changed every 3 or 4 days for 14 days. At the end of the experiment, the cell colonies were stained with 0.5% crystal violet, subjected to image acquisition, and quantified in Adobe Photoshop (Adobe Systems, San Jose, CA). The crystal violet-stained cell colonies were extracted with 10% acetic acid and used for optical density (OD) measurements for determination of colony growth. Drug effects on these cells were determined in duplicate wells in three independent experiments.

SMILES | percentage of CD161+ NK cells in the tumor tissues [1] | percentage of CD163+ macrophages in the tumor tissues [1] | cell invasion [2] | number of cells in G0/G1 phase (MDA-MB-231 cells [3]) | number of cells in G2/M phase (MDA-MB-231 cells [3]) | number of cells in S phase (MDA-MB-231 cells [3]) | colony formation (MDA-MB-231 cells [4])
O=C1CC[C@@]2(O)[C@H]3Cc4ccc(O)c5c4[C@@]2(CCN3CC2CC2)[C@H]1O5 [NTX, 17-(cyclopropylmethyl)-4,5α-epoxy-3,14-dihydroxymorphinan-6-one] | increased | decreased | decreased cell invasion | reduced | increased | no significant changes | moderate inhibition
CC(C)NCC(O)COc1cccc2ccccc12 (stereo not drawn) [PRO, propranolol] | increased | decreased | decreased cell invasion | reduced | increased | no significant changes | moderate inhibition
CC1(C)SSC(C)(C)[C@@H](NC(=O)[C@@H](N)Cc2ccc(O)cc2)C(=O)NCC(=O)N[C@@H](Cc2ccccc2)C(=O)N[C@H]1C(=O)O [DPDPE, (D-Pen^2, D-Pen^5)-enkephalin] | increased | decreased | decreased cell invasion | reduced | increased | no significant changes | moderate inhibition
